The results in this text go back to ChEMBL document CHEMBL3608277 (ACS Med Chem Lett, 2015).

The subject of series [1] is Human immunodeficiency virus 1. Nature of the series: Antiviral activity against HIV1 BaL infected in CD4/CCR5 expressing human MAGI cells incubated for 48 hrs by beta-galactosidase reporter gene assay. As to conditions: Human immunodeficiency virus 1, BaL. Format: functional, organism-based.
Series [2] relates to Human immunodeficiency virus 1. Nature of the series: Antiviral activity against HIV1 3B infected in CD4/CXCR4 expressing human MAGI cells incubated for 48 hrs by beta-galactosidase reporter gene assay. As to conditions: Human immunodeficiency virus 1, 3B. The class given is functional, organism-based. For orientation: A reporter such as luciferase makes a cellular process visible.

In series [3] the test system is Human immunodeficiency virus. Kind of series: Resistance index, ratio of EC50 for […] HIV containing reverse transcriptase K103N/Y181C mutation to EC50 for wild type HIV. The class given is functional.
A short description of series [4]: Toxicity against HEK293 cells derived ACTOne-X4 cells. Format: cell-based. Particulars: human.
Series [5] has as its system Human immunodeficiency virus. Kind of series: Antiviral activity against wild type HIV. Format: functional, organism-based. Particulars: Human immunodeficiency virus 1.
The target in series [6] is T1, C-C chemokine receptor type 5 (Homo sapiens, UniProt P51681). Nature of the series: Displacement of [125I]-MIP-1beta form CCR5 (unknown origin) at 1 mM. (In general: Loss of bound radioactivity is the signal in a displacement assay; it reports binding, not function.)
Target sequence in this assay (P51681 whole entry, looked up): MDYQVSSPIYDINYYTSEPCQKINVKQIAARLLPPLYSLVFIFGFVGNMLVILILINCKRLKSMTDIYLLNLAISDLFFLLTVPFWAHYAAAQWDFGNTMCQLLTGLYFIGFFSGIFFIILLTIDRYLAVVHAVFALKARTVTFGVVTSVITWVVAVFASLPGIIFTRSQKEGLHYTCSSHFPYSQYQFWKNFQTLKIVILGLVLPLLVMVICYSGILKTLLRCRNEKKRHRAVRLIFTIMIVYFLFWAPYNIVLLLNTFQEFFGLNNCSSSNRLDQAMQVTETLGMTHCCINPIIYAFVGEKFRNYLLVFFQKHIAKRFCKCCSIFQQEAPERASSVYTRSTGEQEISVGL
Series [7] concerns Human immunodeficiency virus 1. Kind of series: Antiviral activity against HIV1 BaL infected in CD4/CCR5 expressing human PBMC cells by reverse transcriptase activity and/or p24 antigen content detection based assay. As to conditions: Human immunodeficiency virus 1, BaL. Format: functional, organism-based.
Series [8] deals with Human immunodeficiency virus 1. Kind of series: Antiviral activity against HIV1 3B infected in CD4/CXCR4 expressing human PBMC cells by reverse transcriptase activity and/or p24 antigen content detection based assay. The class given is functional, organism-based. Particulars: Human immunodeficiency virus 1, 3B.
Series [9] can be described thus: Toxicity against human PBMC by MTS assay. The class given is cell-based. Particulars: read-out: TC50 (the source's name). In general terms: Tetrazolium assays rely on reduction of a dye to a coloured formazan, in cell work by metabolically active cells.
For series [10], the target named is T1, C-C chemokine receptor type 5. Kind of series: Displacement of [125I]-MIP-1beta form CCR5 (unknown origin) at 100 uM.
Target sequence in this assay (P51681 whole entry, looked up): as above
A short description of series [11]: Toxicity against human MAGI cells incubated for 48 hrs by MTS assay. The class given is cell-based. As to conditions: read-out: TC50.
Series [12] relates to Human immunodeficiency virus 2. Kind of series: Antiviral activity against HIV2 CDC310319 infected in human PBMC cells. The class given is functional, organism-based. Particulars: Human immunodeficiency virus 2, CDC310319, PBMC.
The nature of series [13]: Inhibition of HIV pNL4-3 heterodimeric reverse transcriptase p66/p51 incubated at 37 degC for 1 hr by scintillation counting method. The arrangement: species or system Human immunodeficiency virus.
Series [14] has as its target C-X-C chemokine receptor type 4 (Homo sapiens) (UniProt P61073). Nature of the series: Displacement of [125I]-SDF1 form CXCR4 (unknown origin) at 1 mM.
Series [15] deals with Human immunodeficiency virus. Kind of series: Antiviral activity against NNRTI-resistant HIV containing reverse transcriptase K103N/Y181C mutation. Format: functional, organism-based. Particulars: Human immunodeficiency virus 1.
Series [16] is described as follows: Toxicity against human HeLa67 cells. The class given is cell-based.
The target of series [17] is T1, C-C chemokine receptor type 5. Nature of the series: Displacement of [125I]-MIP-1beta form CCR5 (unknown origin).
Target sequence in this assay (P51681 whole entry): as the sequence (P51681 whole entry, looked up) above
Series [18] addresses C-X-C chemokine receptor type 4 (Homo sapiens) (UniProt P61073). Kind of series: Inhibition of CXCR4 in human Jurkat cells assessed as reduction in HIV-Nef-M1-induced mitochondrial membrane depolarization at 0.01 to 100 uM by JC1 dye based fluorescence depolarization assay. The class given is cell-based.

pEC50, pIC50: −log10 of the molar value. The source made the active and inactive calls. The calls are words filed in the database; no cut-off is given here.

C-X-C chemokine receptor type 4 (Homo sapiens), sequence (P61073 whole entry): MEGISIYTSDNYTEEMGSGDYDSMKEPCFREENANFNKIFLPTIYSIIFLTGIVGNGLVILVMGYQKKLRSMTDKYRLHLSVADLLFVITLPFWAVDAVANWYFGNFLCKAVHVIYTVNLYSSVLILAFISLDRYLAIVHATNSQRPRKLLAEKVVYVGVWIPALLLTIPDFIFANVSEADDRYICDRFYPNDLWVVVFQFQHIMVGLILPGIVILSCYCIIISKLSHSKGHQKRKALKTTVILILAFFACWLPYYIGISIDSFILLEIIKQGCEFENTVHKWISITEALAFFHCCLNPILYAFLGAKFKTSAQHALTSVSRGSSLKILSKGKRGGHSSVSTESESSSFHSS

`Nc1ccnc(CN2CCC(c3[nH]ncc3Cc3ccccc3)CC2)n1`: the negative logarithm of the IC50 (pIC50) is 4.08 in series [1] and 4.09 in [2].

With `CCc1cc(CN2CCC(c3[nH]ncc3Cc3ccccc3)CC2)[nH]n1`, the pIC50 in series [1] is 4.22; in series [2], 4.17.

With `Nc1ncc(N2CCC(c3[nH]ncc3Cc3ccccc3)CC2)cn1`, the pIC50 in series [1] was 4.02; in series [2], 3.98.

Turning to `CC(C)c1nccc(CN2CCC(c3[nH]ncc3Cc3ccccc3)CC2)n1`, the pIC50 in [1] is 4.89; in series [2], 5.19.

With `c1ccc(-c2cn[nH]c2C2CCN(Cc3cccnc3)CC2)cc1`, the pIC50 is 4.19 in series [1] and 4.36 in series [2].

With `O=C1Nc2ccc(Cl)cc2[C@@](C#CC2CC2)(C(F)(F)F)O1` [EFAVIRENZ], the “Ratio EC50” value in series [3] stood at 70.

For the compound `c1ccc(Cc2cn[nH]c2C2CCN(Cc3ccncc3)CC2)cc1`, the CC50 is > 200 µM in series [4] and > 100 µM in series [9]. Also, the pEC50 in series [5] was 6.05; in series [15] it was 4.72. Also, the figures for the inhibition in [6], in series [10] and in series [14] were 88%, 38% and 0%, respectively. In addition, the negative logarithm of the IC50 (pIC50) is 5.64 in series [7]; 5.64 in series [8]; 5.42 in series [1]; 4.51 in [12]; 5.05 in series [13]; 6.10 in series [2]. Also, the CC50 at 48 h in [11] is > 300 µM.

As to `Cc1ccc(-c2ccc3c(c2)C=C(C(=O)Nc2ccc(C[N+](C)(C)C4CCOCC4)cc2)CCC3)cc1.[Cl-]`, the Activity entry in series [16] is “Toxic”.

Turning to `c1ccc(Cc2cn[nH]c2C2CCN(Cc3cccnc3)CC2)cc1`, the pIC50 was 4.80 in series [1] and 5.24 in series [2].

With `CCc1nccc(CN2CCC(c3[nH]ncc3Cc3ccccc3)CC2)n1`, the pIC50 is 4.18 in series [1] and 4.24 in series [2].

Consider `COc1ncc(CN2CCC(c3[nH]ncc3Cc3ccccc3)CC2)cn1`, for which the negative-log IC50 (pIC50) in series [17] is 4.15; in series [1], 4.14; in series [2], < 3.70.

Regarding `Cc1nnc(C(C)C)n1[C@H]1C[C@H]2CC[C@@H](C1)N2CC[C@H](NC(=O)C1CCC(F)(F)CC1)c1ccccc1`, the inhibition result in [18] was “inactive”.

Take `Cc1cn([C@H]2C[C@H](N=[N+]=[N-])[C@@H](CO)O2)c(=O)[nH]c1=O`: the inhibition result in series [18] was “inactive”.

Take `c1cc(CN2CCCNCCNCCCNCC2)ccc1CN1CCCNCCNCCCNCC1`: in series [18], the inhibition entry was “Active”.

Turning to `Nc1cc(CN2CCC(c3[nH]ncc3Cc3ccccc3)CC2)ncn1`, the values for the pIC50 in series [1] and in series [2] were 4.77 and 4.89, respectively.

As for `c1ccc(Cc2cn[nH]c2C2CCN(Cc3ccccn3)CC2)cc1`, the pIC50 was 4.77 in series [1] and 4.60 in series [2].

The pIC50 is the IC50 on a negative log10 scale, so that one unit is a factor of ten. Higher therefore signals a small IC50. By pEC50 is commonly meant the negative decadic logarithm of the EC50, by convention in mol/L. Broadly, the inhibition is the change of the read-out against control, counted positive when it falls.
